Data from patent US9233143B2, “Medicinal agent for preventing exacerbation of malignant tumor, comprising combination of natriuretic peptide receptor GC-A and GC-B agonists” (National Cerebral and Cardiovascular Center, priority 2011, dated 2016).

Assays:
[1] = tested on: CAFs; test: Production of cancer exacerbation factors by CAFs under TGF-β1 stimulus (quantitative RT-PCR); type: cell-based, human; conditions: test substance 1 μM, TGF-β1 0.125-2.0 ng/mL, 24 hours, mRNA level, FIG. 5
Description: Using a 6-well dish, the CAFs were cultured at 5×10^4 cells/well, and the culture medium was replaced with DMEM culture medium containing 1% FBS the next day. After 24 hours of culture, the cells were used in the following experiment.
A CNP group (a hCNP-22 solution was added (final concentration: 1 μM)) and a control group (the same amount of physiological saline was added) were prepared, and after 2 hours from the addition (of the hCNP-22 solution or the physiological saline) to the CAFs, TGF-β1 was added so that the final concentration would be 0.125, 0.25, 0.5, 1.0, and 2.0 ng/mL. After 24 hours had passed, total RNA was recovered using TRIZOL total RNA isolation reagent, cDNA was synthesized using reverse transcriptase, and the mRNA levels of VEGF-A, TGF-β1, TNF-α, and IL-6 were measured by quantitative RT-PCR.

[2] = tested on: A549 cells; test: Changes in the intracellular cGMP level in response to natriuretic peptide stimulus, A549 cells; type: cell-based, human; conditions: 1×10^−11 M to 1×10^−6 M, 10 minutes, FIG. 1A
Description: Lung adenocarcinoma cell line, A549 cells, was obtained from ATCC (Manassas, Va.). The cells were cultured in DMEM culture medium (Invitrogen, Carlsbad, Va.) containing 10% FCS under 5% CO2 at 37° C. The amounts of the culture medium were 1.5 mL for each well of a 6-well dish, 400 μL for each well of a 24-well dish, and 150 μL for each well of a 96-well dish. In the Examples below, unless otherwise stated, the same culture medium and culture conditions were adopted.
(§1) The A549 cells were cultured in a 24-well dish at 4×10^4 cells/well, and the culture medium was replaced with DMEM culture medium free from FCS the next day. The CAFs were cultured in a 24-well dish at 1×10^4 cells/well, and the culture medium was replaced with DMEM culture medium containing 1% FCS the next day.
(§2) To these culture media, solutions of hANP, hBNP, and hCNP-22 (final concentration: ten-fold serial dilution from 1×10^−11 M to 1×10^−6 M, the same amount of physiological saline was used as a control) were separately added. After 10 minutes had passed, 400 μL of cooled 70% ethanol (containing 0.1 N hydrochloric acid) was added, and ultrasonication was performed for a short time. The treated solution was lyophilized, and the cGMP level was measured using Cyclic GMP Assay kit (made by Yamasa Corp.).

[3] = tested on: tumor cells; conditions: reports by Vesely et al.; cited from earlier work
[4] = tested on: A549 cells; test: EMT induced by TGF-β1 in A549 cells (morphology, quantitative RT-PCR); type: cell-based, human; conditions: for effect of suppressing EMT: concentration of 1 μM, summary of Example 2
Description: Using a 6-well dish, the A549 cells were cultured at 1×10^5 cells/well, and the culture medium was replaced with DMEM culture medium free from FBS the next day. After 24 hours of culture, the cells were used in the following experiment.
An ANP group (a hANP solution was added (final concentration: 1 μM)) and a control group (the same amount of physiological saline was added) were prepared, and after 2 hours from the addition (of the hANP solution or the physiological saline) to the A549 cells, TGF-β1 was added so that the final concentration would be 0.125, 0.25, 0.5, 1.0, and 2.0 ng/mL. After 24 hours had passed, the morphological change in the cells was observed under a microscope and photographed (FIG. 2).
Then, total RNA was recovered from the above prepared ANP group and control group using TRIZOL total RNA isolation reagent (made by Invitrogen), cDNA was synthesized using reverse transcriptase, and the mRNA levels of E-cadherin, N-cadherin, VEGF-A, PDGF-B, TNF-α, and IL-6 were measured by quantitative RT-PCR. The mRNA level of each intended gene was calculated as the relative ratio of the mRNA amount of the gene to that of the housekeeping gene 36B4 measured at the same time. In the Examples below, unless otherwise stated, the mRNA levels were obtained through the same calculation.
It is known that in EMT, the expression of E-cadherin decreases while the expression of N-cadherin increases. The expression ratio of the two kinds of cadherin (N-cad/E-cad) is considered to be useful as an indicator of the degree of EMT.

[5] = tested on: cancer-associated fibroblasts (CAFs); test: Changes in the intracellular cGMP level in response to natriuretic peptide stimulus, CAFs; type: cell-based, human; conditions: 1×10^−11 M to 1×10^−6 M, 10 minutes, FIG. 1B
Description: For obtaining CAFs (cancer-associated fibroblasts), tissue harvested from a patient having lung cancer surgery was subjected to primary culture after the consent of the patient was obtained. The cells were then cultured in DMEM culture medium containing 10% FCS under 5% CO2 at 37° C., and the cells of the 5th and earlier passages were used.
as §1, §2

[6] = tested on: A549 cells and CAFs; test: Mouse models having transplanted cancer cells and CAFs, administration started after tumor tissue was established (Example 6); type: in vivo; conditions: hCNP-22 alone 2.5 μg/kg/min, started 2 weeks after transplantation, 4 weeks, FIG. 10
Description: In this Example and Example 6, 5-week-old male immunodeficient mice (KSN mice, Japan SLC, Inc.) were used. The osmotic pumps used were MODEL2004 (for 28-day administration) made by ALZET (Cupertino, Calif.). A mixed suspension of the A549 cells and the CAFs was prepared using DMEM free from FBS so as to contain the A549 cells at 1×10^6 cells/100 μL and the CAFs at 0.5×10^6 cells/100 μL. The mixed suspension in an amount of 100 μL per mouse was subcutaneously injected in the back of the immunodeficient mice. […] After 2 weeks of observation from the injection of the cell suspension, the mice to which the mixed suspension had been injected were randomly divided into 4 groups (control group, ANP group, CNP group, and ANP+CNP group), and an osmotic pump appropriately adjusted for each group as shown below was subcutaneously implanted to start administration. • Control group and A549 group: physiological saline was administered • ANP group: hANP was administered at 0.5 μg/kg/min • CNP group: hCNP-22 was administered at 2.5 μg/kg/min • ANP+CNP group: hANP was administered at 0.5 μg/kg/min and hCNP-22 was administered at 2.5 μg/kg/min Observation was further continued for 4 weeks after the start of administration, the tumor size at the cell injection site was measured weekly, and tumor volume was calculated in the same way as in Example 5 (FIG. 10).

[7] = tested on: A549 cells co-cultured with CAFs; test: Co-culture system of cancer cells and CAFs (mRNA of the A549 cells); type: cell-based, human; conditions: each test substance 1 μM
Description: In a 6-well dish, the A549 cells were cultured at 1×10^5 cells/well. The culture medium was replaced with DMEM culture medium free from FBS the next day, and the cells were further cultured for 24 hours. In a 6-well dish having a cell culture insert (1.0 μm pore size, made by BD), the CAFs were cultured at 5×10^4 cells/well. The culture medium was replaced with DMEM culture medium containing 1% FBS the next day, and the cells were further cultured for 24 hours. To each culture medium of the two kinds of cells, test substances were separately added to prepare test substance addition groups. Control groups with no test substance were also prepared. After two hours of culture, these were subjected to co-culture. The test substance addition groups were ANP groups containing hANP at a final concentration of 1 μM, CNP groups containing hCNP-22 at a final concentration of 1 μM, and ANP+CNP groups containing both hANP and hCNP-22 each at a final concentration of 1 μM. Each of the groups were prepared by adding the test substance to each culture medium of the two kinds of cells.
On the 6-well dish of A549 cells treated as above, the above cell culture insert with the CAFs was placed to prepare a co-culture experimental model where only the culture media could pass through the cell culture insert. After 24, 48, and 72 hours of culture, total RNA of the A549 cells only was recovered, cDNA was synthesized, and the mRNA levels of E-cadherin, N-cadherin, VEGF-A, PDGF-B, and IL-6 were measured by quantitative RT-PCR (FIGS. 6 to 8). The experiment using ANP alone (ANP groups: FIG. 6), the experiment using CNP alone (CNP groups: FIG. 7), and the experiment using ANP and CNP in combination (ANP+CNP group: FIG. 8) were independently conducted, where control groups were separately set for each experiment.

[8] = A549 cells, test substance 1 μM, mRNA level, FIG. 3

Substance	gene expression of the growth factors (VEGF-A, TGF-β1) and the inflammatory cytokines (TNF-α, IL-6) increased by the TGF-β1 stimulus in CAFs [1]	intracellular cGMP level of the A549 cells [2]	growth-suppressing activity on tumor (cancer) cells [3]	effect of suppressing EMT [4]	cGMP level of the CAFs [5]	other results
hBNP: 32-amino acid BNP of human origin (SPKMVQGSGCFGRKMDRISSSSGLGCKVLRRH: SEQ ID NO: 3), GC-A agonist	did not show any effect on CAFs	increased the intracellular cGMP level of the A549 cells in a concentration-dependent manner	does not have such a growth-suppressing activity	significantly suppressing EMT	did not show such an action	–
hCNP-22: 22-amino acid CNP-22 of human origin (GLSKGCFGLKLDRIGSMSGLGC: SEQ ID NO: 7), GC-B agonist (GLSKGCFGLKLDRIGSMSGLGC; listed as Homo sapiens)	significantly suppressed	did not show such increase	–	did not show such an effect at all	increased the cGMP level of the CAFs in a concentration-dependent manner	tumor growth as compared with the control group [6]: showed an effect of tumor growth suppression; gene expression of the growth factors (VEGF-A, PDGF-B) and inflammatory cytokine (IL-6) increased in the co-culture ([7]; A549 cells co-cultured with CAFs 24, 48, 72 hours, FIGS. 6 to 8): could not suppress; expression ratio of N-cadherin/E-cadherin (N-cad/E-cad), indicator of EMT, in the co-culture ([7]; A549 cells co-cultured with CAFs, FIGS. 6D, 7D, 8D): did not show any effect; morphological change in the cells associated with EMT induced by the TGF-β1 stimulus ([4]; A549 cells, test substance 1 μM, 24 hours after TGF-β1, FIG. 2): the same as those of the control; gene expression of the growth factors (VEGF-A, PDGF-B) and the inflammatory cytokines (TNF-α, IL-6) increased by EMT induced by the TGF-β1 stimulus ([4]; A549 cells, test substance 1 μM, TGF-β1 0.125-2.0 ng/mL, 24 hours, mRNA level, FIG. 3): the same as those of the control; decrease in the expression of E-cadherin induced by the TGF-β1 stimulus [4, 8]: the same as those of the control; increase in the expression of N-cadherin induced by the TGF-β1 stimulus [4, 8]: the same as those of the control
kalliuretic peptide: peptide in reports by Vesely et al., sequence not likely to contribute to binding to GC-A (SSDRSALLKSKLRALLTAPR; Kaliuretic peptide; UniProt P01160 104-123, looked up)	–	–	the same or stronger growth-suppressing activity	–	–	–
long acting natriuretic peptide: peptide in reports by Vesely et al., sequence not likely to contribute to binding to GC-A (NPMYNAVSNADLMDFKNLLDHLEEKMPLED; Long-acting natriuretic peptide; UniProt P01160 26-55, looked up)	–	–	the same or stronger growth-suppressing activity	–	–	–
vessel dilator: peptide in reports by Vesely et al., sequence not likely to contribute to binding to GC-A (EVVPPQVLSEPNEEAGAALSPLPEVPPWTGEVSPAQR; Vessel dilator; UniProt P01160 56-92, looked up)	–	–	the same or stronger growth-suppressing activity	–	–	–
